± gives the standard deviation of the averaged measurements.
What was measured:
Assay in all cases: level (log10 ratio to DMSO vehicle control); higher = higher biomarker level / cell amount than vehicle control
[1] = compound: C=C(C)C(=O)OCCC(F)(F)C(F)(F)C(F)(F)C(F)(F)C(F)(F)C(F)(F)F [6:2 Fluorotelomer methacrylate]; details: in DMSO
Protocol: (§1)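 BioMAP Diversity Plus panel of 12 human primary cell co-culture systems (3C, 4H, LPS, SAg, BT, BF4T, BE3C, CASM3C, HDF3CGF, KF3CT, MyoF, Mphg). Compounds were added 1 h before stimulation and left for 24 h (MyoF 48 h; BT 72 h for soluble read-outs or 6 d for IgG). Biomarkers were read by ELISA, cytotoxicity by SRB, PBMC viability and proliferation by Alamar Blue. Each well value was divided by the mean of 8 DMSO control wells on the same plate and log10 transformed; duplicate blinded samples were tested at 4 concentrations.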

[2] = compound: C=CC(=O)OCC(F)(F)C(F)(F)C(F)(F)COC(=O)C=C [1H,1H,5H,5H-Perfluoro-1,5-pentanediol diacrylate]; details: 6700 nM; in DMSO
Protocol: as §1

[3] = compound: COC(=O)C(F)(F)C(F)(F)OC(F)(C(F)(F)F)C(F)(F)OC(F)=C(F)F [Methyl perfluoro(3-(1-ethenyloxypropan-2-yloxy)propanoate)]; details: in DMSO
Protocol: as §1

[4] = compound: FC(F)(F)C(F)(F)C(F)(F)C(F)(F)C(F)(F)C(F)(F)C(F)(F)I [1-Iodopentadecafluoroheptane]; details: in DMSO
Protocol: as §1

[5] = compound: FC(F)(F)C(F)(F)C(F)(F)C(F)(F)C(F)(F)C(F)(F)CC1CO1 [3-(Perfluorohexyl)-1,2-epoxypropane]; details: in DMSO
Protocol: as §1

[6] = compound: FC(F)(F)C(F)(F)C(F)(F)CC1CO1 [1H,1H-Heptafluorobutyl epoxide]; details: in DMSO
Protocol: as §1

[7] = compound: FC(F)(F)C(F)(F)C(F)(F)CI [Heptafluorobutyl iodide]; details: in DMSO
Protocol: as §1

[8] = compound: FC(F)(F)C(F)(F)CNCC(F)(F)C(F)(F)F [Bis(1H,1H-perfluoropropyl)amine]; details: in DMSO
Protocol: as §1

[9] = compound: NC(=O)C(F)(F)C(F)(F)C(F)(F)C(F)(F)C(N)=O [Octafluoroadipamide]; details: in DMSO
Protocol: as §1

[10] = compound: NC(=O)C(F)(F)C(F)(F)C(F)(F)C(F)(F)F [Nonafluoropentanamide]; details: in DMSO
Protocol: as §1

[11] = compound: NC(=O)C(F)(F)C(F)(F)C(F)(F)C(F)F; details: in DMSO
Protocol: as §1

[12] = compound: NS(=O)(=O)C(F)(F)C(F)(F)C(F)(F)C(F)(F)C(F)(F)C(F)(F)F [Perfluorohexanesulfonamide]; details: in DMSO
Protocol: as §1

[13] = compound: O=C(O)C(F)(F)C(F)(F)C(F)(F)C(F)(F)C(F)(F)C(F)(F)C(F)(F)C(F)(F)C(F)(F)C(F)F [11-H-Perfluoroundecanoic acid]; details: in DMSO
Protocol: as §1

[14] = compound: O=C(O)C=CC(F)(C(F)(F)F)C(F)(F)F [3-(Perfluoroisopropyl)-2-propenoic acid]; details: in DMSO
Protocol: as §1

[15] = compound: O=S(=O)(Cl)C(F)(F)C(F)(F)C(F)(F)C(F)(F)C(F)(F)C(F)(F)C(F)(F)C(F)(F)F [Perfluoro-1-octanesulfonyl chloride]; details: in DMSO
Protocol: as §1

[16] = compound: O=S(=O)(F)C(F)(F)C(F)(F)C(F)(F)C(F)(F)C(F)(F)C(F)(F)C(F)(F)C(F)(F)F [Perfluorooctanesulfonyl fluoride]; details: in DMSO
Protocol: as §1

[17] = compound: O=S(=O)(O)C(F)(F)C(F)(F)C(F)(F)C(F)(F)C(F)(F)C(F)(F)C(F)(F)C(F)(F)C(F)(F)C(F)(F)F [Sodium perfluorodecanesulfonate]; details: in DMSO
Protocol: as §1

[18] = compound: O=S(=O)(O)CCC(F)(F)C(F)(F)C(F)(F)C(F)(F)C(F)(F)C(F)(F)F [6:2 Fluorotelomer sulfonic acid]; details: in DMSO
Protocol: as §1

[19] = compound: OCC(F)(F)C(F)(F)C(F)(F)CO [Hexafluoroamylene glycol]; details: in DMSO
Protocol: as §1

## CASM3C:CD106/VCAM-1
[1]; 6700 nM
  level (log10): -0.0005 ± 0.011
[1]; 20000 nM
  level (log10): -0.005 ± 0.016
[1]; 60000 nM
  level (log10): -0.005 ± 0.0042
[2]
  level (log10): -0.119 ± 0.011
[3]; 6700 nM
  level (log10): -0.024 ± 0.011
[3]; 20000 nM
  level (log10): -0.04 ± 0.021
[4]; 6700 nM
  level (log10): -0.0125 ± 0.005
[4]; 20000 nM
  level (log10): -0.019 ± 0.034
[5]; 6700 nM
  level (log10): -0.024 ± 0.0099
[5]; 20000 nM
  level (log10): -0.0175 ± 0.022
[5]; 60000 nM
  level (log10): -0.01 ± 0.034
[6]; 6700 nM
  level (log10): -0.015 ± 0.035
[6]; 20000 nM
  level (log10): -0.031 ± 0.014
[6]; 60000 nM
  level (log10): 0.0055 ± 0.013
[7]; 6700 nM
  level (log10): -0.023 ± 0.013
[7]; 20000 nM
  level (log10): -0.0245 ± 0.019
[7]; 60000 nM
  level (log10): -0.028 ± 0.0042
[8]; 6700 nM
  level (log10): -0.06 ± 0.024
[8]; 20000 nM
  level (log10): -0.0545 ± 0.026
[8]; 60000 nM
  level (log10): -0.0105 ± 0.053
[9]; 6700 nM
  level (log10): -0.0525 ± 0.005
[9]; 20000 nM
  level (log10): -0.04 ± 0.018
[9]; 60000 nM
  level (log10): -0.0275 ± 0.033
[10]; 6700 nM
  level (log10): -0.0405 ± 0.039
[10]; 20000 nM
  level (log10): -0.0105 ± 0.0035
[10]; 60000 nM
  level (log10): 0.01 ± 0.042
[11]; 6700 nM
  level (log10): -0.009 ± 0.0057
[11]; 20000 nM
  level (log10): -0.003 ± 0.014
[11]; 60000 nM
  level (log10): -0.008 ± 0.014
[12]; 6700 nM
  level (log10): -0.014 ± 0.016
[12]; 20000 nM
  level (log10): -0.0285 ± 0.005
[12]; 60000 nM
  level (log10): -0.0235 ± 0.0064
[13]; 6700 nM
  level (log10): -0.016 ± 0.027
[13]; 20000 nM
  level (log10): -0.023 ± 0.021
[14]; 6700 nM
  level (log10): -0.0315 ± 0.013
[14]; 20000 nM
  level (log10): -0.015 ± 0.0014
[14]; 60000 nM
  level (log10): -0.0045 ± 0.071
[15]; 6700 nM
  level (log10): -0.0395 ± 0.0092
[15]; 20000 nM
  level (log10): -0.0455 ± 0.015
[15]; 60000 nM
  level (log10): -0.0235 ± 0.032
[16]; 6700 nM
  level (log10): 0.0015 ± 0.032
[16]; 20000 nM
  level (log10): 0.0035 ± 0.05
[16]; 60000 nM
  level (log10): -0.008 ± 0.0085
[17]; 1500 nM
  level (log10): -0.043 ± 0.037
[17]; 4400 nM
  level (log10): -0.0795 ± 0.026
[17]; 13000 nM
  level (log10): -0.158 ± 0.037
[17]; 40000 nM
  level (log10): -0.153 ± 0.045
[18]; 6700 nM
  level (log10): -0.008 ± 0.011
[18]; 20000 nM
  level (log10): -0.0325 ± 0.022
[18]; 60000 nM
  level (log10): -0.0605 ± 0.026
[19]; 6700 nM
  level (log10): -0.0015 ± 0.023
[19]; 20000 nM
  level (log10): -0.012 ± 0.025
[19]; 60000 nM
  level (log10): -0.0015 ± 0.021

## CASM3C:IL-6
[1]; 6700 nM
  level (log10): -0.0405 ± 0.035
[1]; 20000 nM
  level (log10): -0.046 ± 0.0042
[1]; 60000 nM
  level (log10): 0.005 ± 0.0028
[2]
  level (log10): -0.0735 ± 0.00071
[3]; 6700 nM
  level (log10): -0.018 ± 0.02
[3]; 20000 nM
  level (log10): -0.0065 ± 0.025
[4]; 6700 nM
  level (log10): -0.0425 ± 0.026
[4]; 20000 nM
  level (log10): -0.0035 ± 0.053
[5]; 6700 nM
  level (log10): -0.0375 ± 0.025
[5]; 20000 nM
  level (log10): -0.0335 ± 0.012
[5]; 60000 nM
  level (log10): 0.001 ± 0.089
[6]; 6700 nM
  level (log10): -0.0235 ± 0.022
[6]; 20000 nM
  level (log10): -0.012 ± 0.0099
[6]; 60000 nM
  level (log10): 0.009 ± 0.047
[7]; 6700 nM
  level (log10): -0.01 ± 0.011
[7]; 20000 nM
  level (log10): -0.016 ± 0.0014
[7]; 60000 nM
  level (log10): 0.009 ± 0.031
[8]; 6700 nM
  level (log10): -0.0335 ± 0.047
[8]; 20000 nM
  level (log10): -0.035 ± 0.02
[8]; 60000 nM
  level (log10): 0.0065 ± 0.023
[9]; 6700 nM
  level (log10): -0.0145 ± 0.0064
[9]; 20000 nM
  level (log10): -0.0185 ± 0.0035
[9]; 60000 nM
  level (log10): 0 ± 0.051
[10]; 6700 nM
  level (log10): 0.0185 ± 0.06
[10]; 20000 nM
  level (log10): -0.0285 ± 0.021
[10]; 60000 nM
  level (log10): 0.015 ± 0.014
[11]; 6700 nM
  level (log10): -0.0315 ± 0.0064
[11]; 20000 nM
  level (log10): -0.0165 ± 0.012
[11]; 60000 nM
  level (log10): 0.017 ± 0.05
[12]; 6700 nM
  level (log10): -0.0145 ± 0.013
[12]; 20000 nM
  level (log10): -0.054 ± 0.0099
[12]; 60000 nM
  level (log10): -0.0495 ± 0.044
[13]; 6700 nM
  level (log10): -0.027 ± 0.014
[13]; 20000 nM
  level (log10): -0.0395 ± 0.03
[14]; 6700 nM
  level (log10): -0.035 ± 0.011
[14]; 20000 nM
  level (log10): -0.0525 ± 0.00071
[14]; 60000 nM
  level (log10): 0.001 ± 0.092
[15]; 6700 nM
  level (log10): -0.009 ± 0.03
[15]; 20000 nM
  level (log10): -0.024 ± 0.02
[15]; 60000 nM
  level (log10): 0.015 ± 0.044
[16]; 6700 nM
  level (log10): -0.014 ± 0.02
[16]; 20000 nM
  level (log10): -0.008 ± 0.0071
[16]; 60000 nM
  level (log10): -0.0125 ± 0.061
[17]; 1500 nM
  level (log10): -0.013 ± 0.018
[17]; 4400 nM
  level (log10): -0.053 ± 0.05
[17]; 13000 nM
  level (log10): 0.055 ± 0.0099
[17]; 40000 nM
  level (log10): 0.108 ± 0.018
[18]; 6700 nM
  level (log10): -0.003 ± 0.011
[18]; 20000 nM
  level (log10): -0.014 ± 0.0014
[18]; 60000 nM
  level (log10): 0.006 ± 0.017
[19]; 6700 nM
  level (log10): -0.0015 ± 0.015
[19]; 20000 nM
  level (log10): -0.0155 ± 0.016
[19]; 60000 nM
  level (log10): 0.028 ± 0.028

Reference: the supplement of paper PMC10331698
